Reference: publication PMC7815808, “Enzyme and lateral flow monoclonal antibody-based immunoassays to simultaneously determine spirotetramat and spirotetramat-enol in foodstuffs” (Scientific Reports, 2021)
Where “and” joins values, the source holds several entries; their conditions need not be identical. Equal entries are not always repeated. Where two headings read alike, the source gives them in different places.

Legend:
[1] = tested on: mAb SPm#23; experiment: Optimized direct cELISA (mAb SPm#23 with tracer HRP–SPh), SP-enol standard curve; assay type: binding, mouse; conditions: for IC50 value for the sum of spirotetramat and spirotetramat-enol: direct cELISA, heterologous bioconjugate
Description: (§1) In order to simultaneously quantify SP and SP-enol contents in a sample, an in situ procedure for treating the sample with alkaline solution in order to hydrolyse SP into SP-enol was assessed. SP and SP-enol standard solutions were prepared in MilliQ water and diluted fivefold with 40 mM NaOH. The mixtures were incubated 10 min at room temperature and diluted twofold with dilution buffer (200 mM Tris·HCl buffer, pH 8.0, containing 280 mM NaCl). For the competitive step, enzyme tracer solutions were prepared in TBS-T (100 mM Tris·HCl buffer, pH 8.0, containing 140 mM NaCl and 0.05% (v/v) Tween-20). As shown in the inset of Table 2, the obtained standard curves of SP-enol and hydrolysed SP were almost identical. This hydrolysis procedure was validated by HPLC‒MS/MS. SP and SP-enol aqueous solutions (50 µg/mL) were treated with NaOH and, 10 min later, the pH was lowered as previously described. Then, 10 µL of hydrolysed and diluted sample was transferred into 990 µL of acetonitrile and dried with anhydrous MgSO4. Controls without the hydrolysis step were also evaluated. Finally, the contents of SP, SP-enol, SP-keto, and SP-mono in the organic extracts were quantified (Table 2). […] Those samples were also analysed with the studied direct cELISA by running SP-enol standard solutions that had been incubated in NaOH and diluted with dilution buffer like the samples. […] Consequently, the developed hydrolysis procedure seemed to perform adequately for SP and SP-enol residue quantification as SP-enol equivalents.
The sigmoidal inhibition curve obtained for SP-enol and the final assay conditions of the developed direct cELISA are provided in Table 3. […] The Amax value of the standard curve was near 1.0, the slope was − 1.4, and the background signal was negligible.
(§2) Microplates were precoated with GAM in order to immobilise the mAb. The competitive step was carried out by mixing the analyte solution or diluted sample with the enzyme tracer solution. Standard curves were built in borosilicate glass tubes from 0.03 to 30 nM by a threefold serial dilution of the most concentrated standard solution, and a blank (no analyte) was also run. Concentrated stock solutions of the analytes in anhydrous DMF were used to prepare the most concentrated standard solution—the DMF concentration was always lower than 0.1% (v/v). The complete immunoassay procedure can be found in the Supplementary Information file.
The absorbance of each microplate well was immediately read at 492 nm using a reference wavelength at 650 nm, and values were processed with KCJunior software from BioTek Instruments. The SigmaPlot Version 14.0 was used to fit the experimental values to a standard four-parameter logistic curve. Immunoassay sensitivity was estimated as the concentration of analyte affording a 50% decrease (IC50) of the maximum absorbance (Amax) obtained in the absence of analyte. The LOD of the assay was defined as the IC10 of the sigmoidal inhibition curve. The LOQ was experimentally determined as the lowest analyte concentration that provided accurate and precise results using fortified food samples. […]
(§3) 7. Direct competitive ELISA procedure
The same protocol previously described for this format was applied.7 Briefly, plates were coated with 100 µL per well of 1 µg/mL GAM solution in carbonate‒bicarbonate buffer, pH 9.6, by overnight incubation at 4 °C. Wells were washed four times with washing solution (150 mM NaCl with 0.05% (v/v) Tween-20) after each incubation step. […]

[2] = tested on: mammals; parameters: method as in earlier work; conditions: cited from earlier work
[3] = tested on: mAb SPm#23; experiment: Antibody specificity (cross-reactivity) of the selected mAb; assay type: binding, mouse; conditions: cross-reactivity of the selected mAb, SP-enol = 100; n=3
Description: (§4) Concerning specificity, the two assayed immunogens (BSA‒SPm and BSA‒SPo) afforded equivalent results. […] Cross-reactivity with the main SP metabolites was studied with antibody SPm#23.
as §2
(§5) Table S1. Specificity of the
as §3
(§6) The same protocol previously described for this format was applied.7 Briefly, plates were coated with 100 µL per well of 1 µg/mL GAM solution in carbonate‒bicarbonate buffer, pH 9.6, by overnight incubation at 4 °C. Wells were washed four times with washing solution (150 mM NaCl with 0.05% (v/v) Tween-20) after each incubation step. Then, 100 µL per well of specific mAb solution in PBS-T was added and plates were incubated at room temperature during 1 h. The competitive reaction was carried out by adding 50 µL per well of analyte solution or diluted sample and 50 µL per well of tracer […]
(§7) enzyme substrate solution (2 mg/mL o-phenylendiamine and 0.012% (v/v) H2O2 in 25 mM sodium citrate and 62 mM sodium phosphate buffer, pH 5.4). Ten minutes later, the enzyme reaction was stopped by adding 100 µL per well of 1 M H2SO4.
8. Influence of pH and ionic strength
Figure S5. Influence of pH and ionic strength over the Amax and IC50 values of the spirotetramat-enol standard curve of the studied direct cELISA.
(§8) 7 E. Ceballos-Alcantarilla, D. López-Puertollano, C. Agulló, A. Abad-Fuentes, A. Abad-Somovilla, J. V. Mercader.
Combined heterologies for monoclonal antibody-based immunoanalysis of fluxapyroxad. Analyst 143, 5718‒ […]

[4] = biological target: mAbs to SP and SP-enol; experiment: Direct cELISA, binding of analytes and other pesticides by the generated mAbs; parameters: species or system mouse; conditions: homologous tracer
Source text: Six mouse mAbs were obtained; three were from immunogen BSA‒SPm—named SPm#23, SPm#25, and SPm#216—and three from conjugate BSA‒SPo—named SPo#227, SPo#237, and SPo#243. These antibodies contained κ light chains and were of the IgG1 isotype, except mAb SPm#25 which was IgG2a. The affinity to SP and SP-enol was studied by checkerboard cELISA in the capture antibody-coated direct format, using homologous and heterologous enzyme tracers (with the same or different hapten, respectively, than the immunizing conjugate). SP and SP-enol standards were prepared in PBS (10 mM phosphate buffer, pH 7.4, with 140 mM NaCl) and tracer solutions for the competitive step were prepared in PBS-T (PBS containing 0.05% (v/v) Tween-20). […] Tracers with linker site heterologies were not bound by the antibodies. The only exception was mAb SPm#23 which did recognize the heterologous HRP‒SPh conjugate. For this antibody, the spacer arm of hapten SPh was located at a more proximal site than that of hapten […]. The lowest IC50 value with the homologous tracer was around 3 nM for SP-enol whereas binding to SP was moderate (IC50 values were higher than 30 nM).
as §4, §2, §5, §3, §6, §7
8. Influence of pH and ionic strength […]
as §8
Combined heterologies for monoclonal antibody-based immunoanalysis of fluxapyroxad. Analyst 143, 5718‒

[5] = Spirotetramat hydrolysis study by direct cELISA; assay type: physicochemical
Description: as §1

[6] = parameters: method as in PMID 23436572; conditions: cited from earlier work
[7] = Spirotetramat hydrolysis study by HPLC‒MS/MS; assay type: physicochemical; parameters: content found by HPLC–MS/MS, sample treatment A / content found by HPLC–MS/MS, sample treatment B / content found by HPLC–MS/MS, sample treatment C / content found by HPLC–MS/MS, sample treatment D: unit not given beside the values; conditions: for fate on incubation in basic solution: 40 mM NaOH, 10 min, room temperature, HPLC‒MS/MS; for content found by HPLC–MS/MS, sample treatment A: SP hydrolysed (40 mM NaOH, 10 min, room temperature); for content found by HPLC–MS/MS, sample treatment C: SP-enol hydrolysed (40 mM NaOH, 10 min, room temperature)
Description: as §1
SP, SP-enol, SP-keto, and SP-mono standard solutions were prepared by serial dilution in acetonitrile from 1 to 2500 μg/L in amber glass vials and kept at − 20 °C. The injection volume was 5 µL and the column temperature was 45 °C. The analysis was carried out using a C18 reverse phase column with a gradient of 0.2% (v/v) formic acid in water (A) and acetonitrile (B) as mobile phase at a flow rate of 0.3 mL/min. The elution profile was 0‒3 min, from 5% B to 95% B, 3.0‒3.5 min, 95% B, 3.5‒3.6 min, from 95% B to 5% B, and 3.6‒8 min, 5% B. Spectra were acquired in positive ionization multiple reaction monitoring mode with interchannel delay of 0.02 s.

[8] = incubated in NaOH solution (samples A and C)
[9] = non-hydrolysed control solution (samples B and D)
[10] = SPm#23 100 μg/L, HRP–SPh 30 μg/L, Tris·HCl pH 8.0, after 40 mM NaOH step, n = 5

Structure (SMILES) | IC50 value for the sum of spirotetramat and spirotetramat-enol [1] [ng/mL] | CR (%) [3] [%] | recovery measured as SP-enol by direct cELISA [5, 8] [%] | recovery measured as SP-enol by direct cELISA [5, 9] | fate on incubation in basic solution [7] | content found by HPLC–MS/MS, sample treatment A ([7]; A) | content found by HPLC–MS/MS, sample treatment B ([7]; B, SP without hydrolysis) | content found by HPLC–MS/MS, sample treatment C ([7]; C) | content found by HPLC–MS/MS, sample treatment D ([7]; D, SP-enol without hydrolysis) | also measured
CCOC(=O)OC1=C(c2cc(C)ccc2C)C(=O)N[C@]12CC[C@@H](OC)CC2 [SP, ethyl cis-8-methoxy-2-oxo-3-(2,5-xylyl)-1-azaspiro[4.5]dec-3-en-4-yl carbonate] | 0.1 | 11.8 | 85.0 | could not be quantified | completely hydrolysed into SP-enol | 0.03 | 109.4 | 0.02 | 0.00 | eye irritation [2]: can be an eye irritant; skin-sensitization [2]: may cause skin-sensitization; toxicity in mammals [2]: does not show severe toxicity; IC50 ([4]; all mAbs, read-out: IC50 values with the homologous tracer): > 30 nM; hydrolysis at basic pH values [6]: quickly hydrolyses to form SP-enol; Recovery (%), sample treatment A ([7]; A, SP hydrolysed, HPLC–MS/MS): 93.4%; Recovery (%), sample treatment B ([7]; B, SP without hydrolysis, HPLC–MS/MS): 88.8%
CO[C@H]1CC[C@]2(CC1)NC(=O)C(c1cc(C)ccc1C)=C2O [SP-enol, spirotetramat-enol] | 0.1 | 100 | 117.6 | 118.0% | remained unmodified | 116.7 | 1.44 | 149.1 | 142.8 | LOD (μg/L) (IC10) ([1]; IC10 of the SP-enol inhibition curve, n = 5): 0.02 µg/L and 0.022 ± 0.004 µg/L; IC50 [1, 10]: 0.34 nM and 0.344 nM; IC50 SP-enol [1, 10]: 0.1 ng/mL and 0.104 ± 0.007 ng/mL; IC50 ([4]; read-out: lowest IC50 value with the homologous tracer): ~3 nM; Recovery (%), sample treatment C ([7]; C, SP-enol hydrolysed, HPLC–MS/MS): 119.6%; Recovery (%), sample treatment D ([7]; D, SP-enol without hydrolysis, HPLC–MS/MS): 114.6%
